Series [1] relates to osteosarcoma cell line (U2OS). The series can be described thus: Western blotting test of cell extinction and damage markers (Caspase-3, PARP). The class given is cell-based. The settings on record: U2OS osteosarcoma cells; 10 μM (FIG. 15). The protocol:
(§1) After a certain period of time, the degree of cell extinction is evaluated by examining the degree of expression of extinction and damage of a specific factor by using Western Blotting Test and the result is shown in FIG. 15.

A short description of series [2]: Fluorescence quantum yield (relative vs rhodamin 6G; absolute PL quantum yield system). The class given is physicochemical. The settings on record: solvent: Ref. Ex. 1 methanol, 2 ethanol, 3 n-propanol, 4 iso-propanol, 5 n-butanol, 6 DMSO; for Absolute quantum yield: absolute PL quantum yield measurement system; for Relative quantum yield: relative to rhodamin 6G. The protocol:
The absolute quantum yield is determined by using an absolute PL quantum yield measurement system (QE-1000, Otsuka Electronics, Japan). The relative quantum yield is determined by measuring the absorbance and emission intensity for each five concentrations for one solvent, determining the slope of said measured values, and comparing the slope with that of rhodamin 6G (the quantum yield of rhodamin 6G in ethanol is 0.95).
(§2) Except for conducting the photochemical reaction in the presence of an organic solvent such as ethanol (Reference Example 2), n-propanol (Reference Example 3), iso-propanol (Reference Example 4), n- butanol (Reference Example 5) or DMSO (Reference Example 6), respectively, the fluorescent compound is obtained from trans-resveratrol in the same manner as Reference Example 1.

Series [3] in a line: Excitation and emission maxima by fluorescent spectrophotometer. The class given is physicochemical. The settings on record: solvent: Ref. Ex. 1 methanol, 2 ethanol, 3 n-propanol, 4 iso-propanol, 5 n-butanol, 6 DMSO. The protocol:
UV absorption of the final fluorescent compound is determined by using a UV-VISIBLE spectrophotometer (Perkin Elmer, USA). Maximum values of excitation and emission are determined by using a fluorescent spectrophotometer (PTI, USA).
as §2

In the next series the test system is breast epithelial cell. Kind of series: Trypan blue exclusion test (cytotoxicity). The series is classed as cell-based. To be noted: both test concentrations 1 μM and 10 μM (FIG. 14). The protocol:
(§3) In the presence of a test compound or a comparative compound, a cell line is cultured for a certain period of time (about 72 hours) and then a cytotoxicity test is conducted. As a control group, a blank test is conducted in the same manner as above without adding any compound including the test compound and the comparative compound.

The subject of series [4] is breast epithelial cell line. The series can be described thus: Cytomorphology test (cytotoxicity). The class given is cell-based. To be noted: breast epithelial cells, cultured about 72 hours, microscopic examination (FIG. 13). The protocol: as §3
Series [5] deals with breast epithelial cell line. The series can be described thus: Western blotting test of cell extinction and damage markers (Caspase-3, PARP). The settings on record: 1, 10 and 100 μM (FIG. 15). The class given is cell-based. Here is the method:
as §1
In general terms: In western blotting, separated proteins are transferred to a membrane and probed.

Series [6] can be described thus: Irradiation with natural light (photochemical stability). To be noted: natural light for a long period of time. The class given is physicochemical. The source says:
Meanwhile, prior art (PCT/EP01/06103) discloses using polydatin of formula 5 above as sunblock.

For series [7] the following is noted: in ethanol; reference standard; cited from earlier work.
Setting [8] is: listed as Reference Example 2, in Ethanol solvent.
Where [9] appears, read: listed as Reference Example 3, in n-Propanol solvent.
Setting [10] is: listed as Reference Example 4, in iso-Propanol solvent.
[11] abbreviates: listed as Reference Example 5, in n-Butanol solvent.
Where [12] appears, read: listed as Reference Example 6, in DMSO solvent.

With `COc1cc([C@@H]2c3cc4c(cc3[C@@H](O[C@@H]3O[C@@H]5CO[C@@H](C)O[C@H]5[C@H](O)[C@H]3O)[C@H]3COC(=O)[C@H]23)OCO4)cc(OC)c1O` [Etoposide], the “Western blot peaks resulting from cell extinction and damage” value in series [1] was “significantly remarkable peak at 17 kDa, 19 kDa and 89 kDa positions”.
As for `CC(=O)/C=C/c1ccc2cc(O)cc(O)c2c1` [Reference Example 1, (E)-4-(6,8-dihydroxynaphthalen-2-yl) but-3-en-2-one], the Absolute quantum yield in series [2] was found to be 0.058; in series [2] (setting [8]), 0.145; in series [2] (setting [9]), 0.212; in series [2] (setting [10]) it was 0.311; in series [2] (setting [11]), 0.254; in series [2] (setting [12]), 0.439. The Relative quantum yield in series [2] worked out at 0.035; in series [2] (setting [8]), 0.103; in series [2] (setting [9]) it was 0.155; in series [2] (setting [10]), 0.247; in series [2] (setting [11]), 0.200; in series [2] (setting [12]) it was 0.523. The Emission in series [3] came to 547 nm; in series [3] (setting [8]), 540 nm; in series [3] (setting [9]), 534 nm; in series [3] (setting [10]), 525 nm; in series [3] (setting [11]), 536 nm; in series [3] (setting [12]), 497 nm. The compound also yielded an Excitation in series [3] of 390 nm.
Take `CC(=O)/C=C/c1ccc2cc(O[C@@H]3O[C@H](CO)[C@@H](O)[C@H](O)[C@H]3O)cc(O)c2c1` [Resveratrone glucoside, (E)-4-(8-hydroxy-6-(((2S,3R,4S,5S,6R)-3,4,5-trihydroxy-6-(hydroxymethyl)tetrahydro-2H-pyran-2-yl)oxy)naphthalen-2-yl)but-3-en-2-one]: in the series on breast epithelial cell, the “number of cells alive vs control group” value was “number of cells similar to that of the control group”. Moreover, the “cytomorphology and number change of the cultured cell vs control group” value in series [4] was “no significant difference from the control group”. In addition, in series [5], the “Western blot peaks resulting from cell extinction and damage” value was “no peak at 17 kDa, 19 kDa and 89 kDa positions”.
Turning to `OC[C@H]1O[C@@H](Oc2cc(O)cc(/C=C/c3ccc(O)cc3)c2)[C@H](O)[C@@H](O)[C@@H]1O` [polydatin, resveratrol 3-O-β-glucoside], the “photochemical reaction product after irradiation” value in series [6] was “any photochemical reaction product could not be found”.
With `CCN=c1cc2oc3cc(NCC)c(C)cc3c(-c3ccccc3C(=O)OCC)c-2cc1C.Cl` [rhodamin 6G], the quantum yield in series [7] is reported as 0.95.

The values are drawn from patent publication USRE49223E1, “Water-soluble fluorescence compound and method for preparing the same” (SNU R&DB FOUNDATION, priority 2011, dated 2022).
